Assay results published in ChEMBL document CHEMBL5126609, “Design, Synthesis, and Pharmacological Evaluation of Benzimidazolo-thiazoles as Potent CXCR3 Antagonists with Therapeutic Potential in Autoimmune Diseases: Discovery of ACT-672125” (J Med Chem, 2022).
In brackets after ≈: the same amount, converted by molar mass.

Key:
[1] = molecular target: T1, C-X-C chemokine receptor type 3 (Homo sapiens, UniProt P49682); experiment: Antagonist activity at human recombinant CXCR3 expressed in CHO-K1 cells measured after 10 mins in presence of CXCL10 by FLIPR analysis
T1 sequence (P49682 whole entry): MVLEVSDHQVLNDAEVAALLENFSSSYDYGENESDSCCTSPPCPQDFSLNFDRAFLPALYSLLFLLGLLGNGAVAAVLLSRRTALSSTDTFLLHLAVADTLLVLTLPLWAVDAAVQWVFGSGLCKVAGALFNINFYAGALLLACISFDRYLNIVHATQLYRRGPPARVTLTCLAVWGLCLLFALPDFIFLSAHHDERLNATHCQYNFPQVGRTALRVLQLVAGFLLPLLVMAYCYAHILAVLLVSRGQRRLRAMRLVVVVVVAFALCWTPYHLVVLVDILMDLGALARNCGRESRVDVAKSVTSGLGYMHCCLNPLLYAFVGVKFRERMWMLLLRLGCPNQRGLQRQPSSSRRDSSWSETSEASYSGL

[2] = molecular target: T1, C-X-C chemokine receptor type 3; experiment: Antagonist activity at human recombinant CXCR3 in human venous blood assessed as receptor internalization measured for 30 mins in presence of CXCL10 by flow cytometric analysis
[3] = molecular target: hERG (KCNH2) (Homo sapiens, UniProt Q12809); experiment: Inhibition of hERG expressed in CHO cells at 3 uM at -80 mV holding potential assessed as current block incubated for 3 mins by Qpatch clamp method relative to control
[4] = Lipophilicity, log D of the compound at pH 7.4; conditions: buffer
[5] = Solubility of the compound in FeSSIF; conditions: simulated gi fluid
[6] = in vivo; conditions: Balb/c, mouse, po, 10 mg/kg
[7] = in vivo; conditions: Balb/c, mouse, po, 10 mg/kg; remark: listed apart in the source
[8] = in vivo; conditions: Balb/c, mouse, po, 10 mg/kg; remark: listed apart in the source
[9] = in vitro; conditions: human, microsomes
[10] = in vitro; conditions: mouse, microsomes
[11] = Solubility of the compound in FaSSIF; conditions: simulated gi fluid
[12] = Unbound fraction in human plasma by equilibrium based LC-MS/MS analysis
[13] = Unbound fraction in mouse plasma by equilibrium based LC-MS/MS analysis

Sequence of hERG (KCNH2) (Q12809 whole entry): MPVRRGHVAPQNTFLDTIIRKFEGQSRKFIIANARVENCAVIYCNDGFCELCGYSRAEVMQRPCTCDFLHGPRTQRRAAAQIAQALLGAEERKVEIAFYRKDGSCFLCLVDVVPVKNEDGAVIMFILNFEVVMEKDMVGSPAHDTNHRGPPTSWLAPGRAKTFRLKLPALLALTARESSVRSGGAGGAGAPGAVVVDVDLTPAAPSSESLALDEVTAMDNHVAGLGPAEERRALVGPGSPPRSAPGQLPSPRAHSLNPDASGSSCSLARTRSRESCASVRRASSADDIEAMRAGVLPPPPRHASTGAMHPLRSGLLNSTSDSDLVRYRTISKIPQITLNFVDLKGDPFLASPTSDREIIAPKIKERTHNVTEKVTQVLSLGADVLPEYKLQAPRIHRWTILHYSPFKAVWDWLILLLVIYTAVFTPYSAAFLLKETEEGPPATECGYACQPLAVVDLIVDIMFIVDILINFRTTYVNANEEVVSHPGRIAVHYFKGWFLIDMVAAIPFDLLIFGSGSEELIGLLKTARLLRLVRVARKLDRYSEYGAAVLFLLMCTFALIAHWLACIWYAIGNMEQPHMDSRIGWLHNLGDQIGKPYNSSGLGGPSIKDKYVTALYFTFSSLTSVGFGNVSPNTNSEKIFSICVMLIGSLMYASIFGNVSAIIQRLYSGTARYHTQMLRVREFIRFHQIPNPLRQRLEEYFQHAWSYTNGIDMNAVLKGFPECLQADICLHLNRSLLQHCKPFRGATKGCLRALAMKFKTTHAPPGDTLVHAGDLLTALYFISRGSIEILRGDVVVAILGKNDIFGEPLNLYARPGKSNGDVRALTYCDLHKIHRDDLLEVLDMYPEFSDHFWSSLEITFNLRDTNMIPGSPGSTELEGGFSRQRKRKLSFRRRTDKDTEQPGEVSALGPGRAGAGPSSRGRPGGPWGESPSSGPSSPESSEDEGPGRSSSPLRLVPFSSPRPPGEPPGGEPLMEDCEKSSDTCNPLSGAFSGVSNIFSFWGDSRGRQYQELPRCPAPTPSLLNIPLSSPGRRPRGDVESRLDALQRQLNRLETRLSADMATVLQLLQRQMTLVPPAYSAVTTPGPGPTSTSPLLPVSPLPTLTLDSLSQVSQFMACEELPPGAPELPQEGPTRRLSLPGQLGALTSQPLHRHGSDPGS

| IC50 [1] [nM] | IC50 [2] [nM] | SMILES | inhibition at 0.05 h, 3 µM [3] [%] | other results |
| --- | --- | --- | --- | --- |
| 2.2 | 307 | Cc1nc(C)n(CC(=O)N2CCN(c3sc(C(F)(F)F)nc3-c3nc4ccc(C5CCNCC5)cc4[nH]3)C[C@H]2C)n1 | 5 | – |
| 5.7 | 368 | Cc1nc(C)n(CC(=O)N2CCN(c3sc(C(F)(F)F)nc3-c3nc4ccc(N5CCOCC5)cc4[nH]3)C[C@H]2C)n1 | 4 | logD [4]: 2; solubility [5]: 963 µg/mL (≈ 1630 µM); Cmax [6]: 4320 ng/mL; Tmax [7]: 15 min; AUC [8]: 4110 ng·h/mL; microsomal CLint at 0.25 h, 1 µM [9]: 19 µL/min/mg; microsomal CLint at 0.25 h, 1 µM [10]: 18 µL/min/mg |
| 3.3 | 123 | Cc1nc(C)n(CC(=O)N2CCN(c3sc(C(F)(F)F)nc3-c3nc4ccc(C5CCOCC5)cc4[nH]3)C[C@H]2C)n1 | 18 | logD [4]: 3.7; solubility [5]: > 1000 µg/mL; Cmax [6]: 1980 ng/mL; Tmax [7]: 18 min; AUC [8]: 545 ng·h/mL; microsomal CLint at 0.25 h, 1 µM [9]: 18 µL/min/mg; microsomal CLint at 0.25 h, 1 µM [10]: 46 µL/min/mg |
| 3.8 | 580 | Cc1nc(C)n(CC(=O)N2CCN(c3sc(C(F)(F)F)nc3-c3nc4ccc(OC5CNC5)cc4[nH]3)C[C@H]2C)n1 | 0 | – |
| 13 | 191 | C[C@@H]1CN(c2sc(C(F)(F)F)nc2-c2nc3ccccc3[nH]2)CCN1C(=O)Cn1cccn1 | 54 | logD [4]: 3.4; solubility [11]: 352 µg/mL (≈ 740 µM); solubility [5]: 734 µg/mL (≈ 1540 µM); fraction unbound [12]: 0.052; fraction unbound [13]: 0.026; Cmax [6]: 670 ng/mL; Tmax [7]: 15 min; AUC [8]: 720 ng·h/mL; microsomal CLint at 0.25 h, 1 µM [9]: 44 µL/min/mg; microsomal CLint at 0.25 h, 1 µM [10]: 218 µL/min/mg |
| 2.6 | 143 | C[C@@H]1CN(c2sc(C(F)(F)F)nc2-c2nc3ccccc3[nH]2)CCN1C(=O)Cn1c(=O)[nH]c2cccnc21 | 53 | – |
| – | – | Cc1nc(C)n(CC(=O)N2CCN(c3sc(C(F)(F)F)nc3-c3nc4ccc(C(C)(C)O)c(F)c4[nH]3)C[C@H]2C)n1 | 18 | – |
| – | – | Cc1nc(C)n(CC(=O)N2CCN(c3sc(C(F)(F)F)nc3-c3nc4cccc(C)c4[nH]3)C[C@H]2C)n1 | 52 | – |
| – | – | COC1CCN(CC(=O)N2CCN(c3sc(C(F)(F)F)nc3-c3nc4ccccc4[nH]3)C[C@H]2C)C1 (stereo partly specified) | 85 | – |
| – | – | Cc1nc(C)n(CC(=O)N2CCN(c3sc(C(F)(F)F)nc3-c3nc4cc(N5CCOCC5)cc(F)c4[nH]3)C[C@H]2C)n1 | 6 | – |
| – | – | C[C@@H]1CN(c2sc(C(F)(F)F)nc2-c2nc3ccccc3[nH]2)CCN1C(=O)CN1CCC(F)(F)CC1 | 84 | – |
| – | – | C[C@@H]1CN(c2sc(C(F)(F)F)nc2-c2nc3ccccc3[nH]2)CCN1C(=O)CN1C(=O)OC[C@@H]1c1ccccc1 | 83 | – |
| – | – | Cc1nc(C)n(CC(=O)N2CCN(c3sc(C(F)(F)F)nc3-c3nc4ccc(S(C)(=O)=O)cc4[nH]3)C[C@H]2C)n1 | 8 | – |
| – | – | Cc1nc(C)n(CC(=O)N2CCN(c3sc(C(F)(F)F)nc3-c3nc4ccc(O)c(F)c4[nH]3)C[C@H]2C)n1 | 15 | – |
| – | – | Cc1nc(C)n(CC(=O)N2CCN(c3sc(C(F)(F)F)nc3-c3nc4ccc(OC5COC5)cc4[nH]3)C[C@H]2C)n1 | 0 | – |
| – | – | Cc1nc(C)n(CC(=O)N2CCN(c3sc(C(F)(F)F)nc3-c3nc4ccc(N5CCOCC5)c(F)c4[nH]3)C[C@H]2C)n1 | 25 | – |
| – | – | C[C@@H]1CN(c2sc(C(F)(F)F)nc2-c2nc3ccccc3[nH]2)CCN1C(=O)Cn1ccc(C(=O)O)n1 | -2 | – |

| SMILES | IC50 [1] [nM] | IC50 [2] [nM] | inhibition at 0.05 h, 3 µM [3] [%] | other results |
| --- | --- | --- | --- | --- |
| C[C@@H]1CN(c2sc(C(F)(F)F)nc2-c2nc3cc(Cl)ccc3[nH]2)CCN1C(=O)Cn1cnc2cccnc21 | 2.8 | 38.5 | 83 | – |
